We go through 65 compounds from US8791129B2, “Phenylquinazoline derivatives” (Merck Patent GmbH, priority 2010, dated 2014).

In general, IC50 refers to the concentration at which inhibition is half-maximal.

The target in the assay is T1, Recombinant human HSP90α (Homo sapiens, UniProt P07900).
T1 construct: host or cells: E. coli
Put plainly: Radioligand filter binding test with [3H]17AAG for the measurement of HSP90 inhibitors. As to conditions: competition with [3H]17AAG 0.08 μM; HSP90 1.5 μg/assay; 22° C., 30 min; read-out: IC50 (HSP90 inhibition). From the text: Test Method for the Measurement of HSP90 Inhibitors
The binding of geldanamycin or 17-allylamino-17-demethoxygeldanamycin (17AAG) to HSP90 and competitive inhibition thereof can be utilised in order to determine the inhibitory activity of the compounds according to the invention (Carreras et al. 2003, Chiosis et al. 2002).
In the specific case, a radioligand filter binding test is used. The radioligand used here is tritium-labelled 17-allylaminogeldanamycin, [3H]17AAG. This filter binding test allows a targeted search for inhibitors which interfere with the ATP binding site.
Recombinant human HSP90α (E. coli expressed, 95% purity);
[3H]17AAG (17-allylaminogeldanamycin, [allylamino-2,3-^3H. Specific activity: 1.11×10^12 Bq/mmol (Moravek, MT-1717);
HEPES filter buffer (50 mM HEPES, pH 7.0, 5 mM MgCl2, BSA 0.01%)
Multiscreen FB (1 μm) filter plate (Millipore, MAFBNOB 50).
The 96-well microtitre filter plates are firstly irrigated and coated with 0.1% of polyethyleneimine.
The test is carried out under the following conditions:
Reaction temperature 22° C.
Reaction time: 30 min., shaking at 800 rpm
50 mM HEPES HCl, pH 7.0, 5 mM MgCl2, 0.01% (w/v) of BSA
At the end of the reaction, the supernatant in the filter plate is removed by suction with the aid of a vacuum manifold (Multiscreen Separation System, Millipore), and the filter is washed twice.
The filter plates are then measured in a beta counter (Microbeta, Wallac) with scintillator (Microscint 20, Packard).
“% of control” is determined from the “counts per minutes” values, and the IC-50 value of a compound is calculated therefrom.
As to `CN(CCO)Cc1ccccc1-c1ccc2nc(N)nc(C(=O)N3Cc4ccccc4C3)c2c1`, the IC50 lay in the range of 10 to 1000 nM.
As to `CCN(CCO)Cc1ccccc1-c1ccc2nc(N)nc(C(=O)N3Cc4ccccc4C3)c2c1`, the IC50 was in the range of 10 to 1000 nM.
The same measure for `Nc1nc(C(=O)N2Cc3ccccc3C2)c2cc(-c3ccccc3CN3CCC(O)CC3)ccc2n1`: 10 to 1000 nM; for `CC(C)(C)NCc1ccccc1-c1ccc2nc(N)nc(C(=O)N3Cc4ccccc4C3)c2c1`: 10 to 1000 nM.
In the case of `Nc1nc(C(=O)N2Cc3ccccc3C2)c2cc(-c3ccccc3CN3CCCC3)ccc2n1`, the IC50 was in the range of 10 to 1000 nM.
The same measure for `CC1CCCN1Cc1ccccc1-c1ccc2nc(N)nc(C(=O)N3Cc4ccccc4C3)c2c1` (centres unmarked): 10 to 1000 nM.
With `Nc1nc(C(=O)N2Cc3ccccc3C2)c2cc(-c3ccccc3CN3CCC(CO)C3)ccc2n1` (centres unmarked), the IC50 was in the range of 10 to 1000 nM.
As to `Nc1nc(C(=O)N2Cc3ccccc3C2)c2cc(-c3ccccc3CN3CCC(O)C3)ccc2n1` (centres unmarked), the IC50 lay in the range of 10 to 1000 nM.
Then `Nc1nc(C(=O)N2Cc3ccccc3C2)c2cc(-c3ccccc3CN3CCC(N)C3)ccc2n1` (centres unmarked), with 10 to 1000 nM; and `CCN(C)Cc1ccccc1-c1ccc2nc(N)nc(C(=O)N3Cc4ccccc4C3)c2c1`, with 10 to 1000 nM; and `CCN(CC)Cc1ccccc1-c1ccc2nc(N)nc(C(=O)N3Cc4ccccc4C3)c2c1`, with 10 to 1000 nM.
On to `CNC(=O)C1CCCN1Cc1ccccc1-c1ccc2nc(N)nc(C(=O)N3Cc4ccccc4C3)c2c1` (centres unmarked), for which the IC50 was in the range of 10 to 1000 nM.
As for `Nc1nc(C(=O)N2Cc3ccccc3C2)c2cc(-c3ccccc3CN3CCCC3C(=O)NCCO)ccc2n1` (centres unmarked), the IC50 is 10 to 1000 nM.
The same measure for `Nc1nc(C(=O)N2Cc3ccccc3C2)c2cc(-c3ccccc3CNC3CC3)ccc2n1`: 10 to 1000 nM; for `Nc1nc(C(=O)N2Cc3ccccc3C2)c2cc(-c3ccccc3CNC3CCC3)ccc2n1`: 10 to 1000 nM; for `Nc1nc(C(=O)N2Cc3ccccc3C2)c2cc(-c3ccccc3CN3CCC(F)(F)C3)ccc2n1`: 10 to 1000 nM.
Then `CC1CCC(C)N1Cc1ccccc1-c1ccc2nc(N)nc(C(=O)N3Cc4ccccc4C3)c2c1` (centres unmarked), with 10 to 1000 nM.
For `Nc1nc(C(=O)N2Cc3ccccc3C2)c2cc(-c3ccccc3CN3CC[C@H](F)C3)ccc2n1`, the IC50 was 10 to 1000 nM.
In the case of `C[C@@H]1CCCN1Cc1ccccc1-c1ccc2nc(N)nc(C(=O)N3Cc4ccccc4C3)c2c1`, the IC50 was in the range of 10 to 1000 nM.
Then `CC(C)(C)NCc1cc(F)ccc1-c1ccc2nc(N)nc(C(=O)N3Cc4ccccc4C3)c2c1`, with 10 to 1000 nM; and `CC1CCCN1Cc1cc(F)ccc1-c1ccc2nc(N)nc(C(=O)N3Cc4ccccc4C3)c2c1` (centres unmarked), with 10 to 1000 nM.
For the compound `CC1CCCN1Cc1ccc(F)cc1-c1ccc2nc(N)nc(C(=O)N3Cc4ccccc4C3)c2c1` (centres unmarked), the IC50 fell in the range of 10 to 1000 nM.
Consider `CC(C)(C)NCc1ccc(F)cc1-c1ccc2nc(N)nc(C(=O)N3Cc4ccccc4C3)c2c1`, for which the IC50 lay within 10 to 1000 nM.
Then `NC(=O)CNCc1ccccc1-c1ccc2nc(N)nc(C(=O)N3Cc4ccccc4C3)c2c1`, with 10 to 1000 nM.
Take `Nc1nc(C(=O)N2Cc3ccccc3C2)c2cc(-c3ccccc3CN(CCO)CCO)ccc2n1`: the IC50 is 10 to 1000 nM.
Consider `C[C@H]1CCCN1Cc1ccccc1-c1ccc2nc(N)nc(C(=O)N3Cc4ccccc4C3)c2c1`, for which the IC50 lay in the range of 10 to 1000 nM.
Take `CN(Cc1ccccc1-c1ccc2nc(N)nc(C(=O)N3Cc4ccccc4C3)c2c1)C1CC1`: the IC50 lay in the range of 10 to 1000 nM.
As to `CCN(C)Cc1ccc(F)cc1-c1ccc2nc(N)nc(C(=O)N3Cc4ccccc4C3)c2c1`, the IC50 was 10 to 1000 nM.
The same measure for `CN1CCN(Cc2ccc(F)cc2-c2ccc3nc(N)nc(C(=O)N4Cc5ccccc5C4)c3c2)CC1`: 10 to 1000 nM.
Then `CN1CCN(Cc2cc(F)ccc2-c2ccc3nc(N)nc(C(=O)N4Cc5ccccc5C4)c3c2)CC1`, with 10 to 1000 nM.
Consider `CCN(CCO)Cc1ccc(F)cc1-c1ccc2nc(N)nc(C(=O)N3Cc4ccccc4C3)c2c1`, for which the IC50 fell in the range of 10 to 1000 nM.
Turning to `CC(C)(C)NCc1cc(F)c(F)cc1-c1ccc2nc(N)nc(C(=O)N3Cc4ccccc4C3)c2c1`, the IC50 lay within 10 to 1000 nM.
As for `CCN(C)Cc1cc(F)c(F)cc1-c1ccc2nc(N)nc(C(=O)N3Cc4ccccc4C3)c2c1`, the IC50 lay within 10 to 1000 nM.
On to `CCN(CC)Cc1cc(F)c(F)cc1-c1ccc2nc(N)nc(C(=O)N3Cc4ccccc4C3)c2c1`, for which the IC50 was in the range of 10 to 1000 nM.
The same measure for `Nc1nc(C(=O)N2Cc3ccccc3C2)c2cc(-c3cc(F)c(F)cc3CN3CCCC3)ccc2n1`: 10 to 1000 nM; for `CC1CCC(C)N1Cc1cc(F)c(F)cc1-c1ccc2nc(N)nc(C(=O)N3Cc4ccccc4C3)c2c1` (centres unmarked): 10 to 1000 nM.
In the case of `CC1CCCN1Cc1cc(F)c(F)cc1-c1ccc2nc(N)nc(C(=O)N3Cc4ccccc4C3)c2c1` (centres unmarked), the IC50 was in the range of 10 to 1000 nM.
`CN(Cc1cc(F)c(F)cc1-c1ccc2nc(N)nc(C(=O)N3Cc4ccccc4C3)c2c1)C(C)(C)C`: the IC50 lay within 10 to 1000 nM.
As for `CN1CCN(Cc2cc(F)c(F)cc2-c2ccc3nc(N)nc(C(=O)N4Cc5ccccc5C4)c3c2)CC1`, the IC50 fell in the range of 10 to 1000 nM.
Turning to `CCN(CC)Cc1ccc(F)cc1-c1ccc2nc(N)nc(C(=O)N3Cc4ccccc4C3)c2c1`, the IC50 is 10 to 1000 nM.
Take `Nc1nc(C(=O)N2Cc3ccccc3C2)c2cc(-c3cc(F)ccc3CN3CCC(O)CC3)ccc2n1`: the IC50 was 10 to 1000 nM.
As for `CC(C)(C)NCc1cc2c(cc1-c1ccc3nc(N)nc(C(=O)N4Cc5ccccc5C4)c3c1)OCO2`, the IC50 fell in the range of 10 to 1000 nM.
Regarding `COc1cc(CO)c(-c2ccc3nc(N)nc(C(=O)N4Cc5ccccc5C4)c3c2)cc1OC`, the IC50 was in the range of 1000 to 10000 nM.
Consider `NCc1cc(F)c(F)cc1-c1ccc2nc(N)nc(C(=O)N3Cc4ccccc4C3)c2c1`, for which the IC50 lay within 10 to 1000 nM.
In the case of `NCCC(=O)NCc1cc(F)c(F)cc1-c1ccc2nc(N)nc(C(=O)N3Cc4ccccc4C3)c2c1`, the IC50 lay in the range of 10 to 1000 nM.
As for `CN(C)CCC(=O)NCc1cc(F)c(F)cc1-c1ccc2nc(N)nc(C(=O)N3Cc4ccccc4C3)c2c1`, the IC50 was 10 to 1000 nM.
As to `NCCC(=O)OCc1cc(F)c(F)cc1-c1ccc2nc(N)nc(C(=O)N3Cc4ccccc4C3)c2c1`, the IC50 was 10 to 1000 nM.
Then `CN(C)CCCOCc1cc(F)c(F)cc1-c1ccc2nc(N)nc(C(=O)N3Cc4ccccc4C3)c2c1`, with 10 to 1000 nM; and `CN(C)CCOCc1cc(F)c(F)cc1-c1ccc2nc(N)nc(C(=O)N3Cc4ccccc4C3)c2c1`, with 10 to 1000 nM; and `NCCCOCc1cc(F)c(F)cc1-c1ccc2nc(N)nc(C(=O)N3Cc4ccccc4C3)c2c1`, with 10 to 1000 nM.
For `Nc1nc(C(=O)N2Cc3ccccc3C2)c2cc(-c3cc(F)c(F)cc3COCCO)ccc2n1`, the IC50 was 10 to 1000 nM.
Regarding `Nc1nc(C(=O)N2Cc3ccccc3C2)c2cc(-c3cc(F)c(F)cc3COCCOCCOCCO)ccc2n1`, the IC50 is 10 to 1000 nM.
Turning to `NCCC[C@H](N)C(=O)OCc1cc(F)c(F)cc1-c1ccc2nc(N)nc(C(=O)N3Cc4ccccc4C3)c2c1`, the IC50 lay in the range of 10 to 1000 nM.
Take `CN(C)CCC(=O)OCc1cc(F)c(F)cc1-c1ccc2nc(N)nc(C(=O)N3Cc4ccccc4C3)c2c1`: the IC50 was in the range of 10 to 1000 nM.
Turning to `NCCCC[C@H](N)C(=O)OCc1cc(F)c(F)cc1-c1ccc2nc(N)nc(C(=O)N3Cc4ccccc4C3)c2c1`, the IC50 is 10 to 1000 nM.
As to `NOCc1cc(F)c(F)cc1-c1ccc2nc(N)nc(C(=O)N3Cc4ccccc4C3)c2c1`, the IC50 lay within 10 to 1000 nM.
For the compound `Nc1nc(C(=O)N2Cc3ccccc3C2)c2cc(-c3cc(F)c(F)cc3COP(=O)(O)O)ccc2n1`, the IC50 lay within 10 to 1000 nM.
For the compound `NCCCCC(N)C(=O)OCc1ccc(F)cc1-c1ccc2nc(N)nc(C(=O)N3Cc4ccccc4C3)c2c1` (centres unmarked), the IC50 lay within 10 to 1000 nM.
Turning to `CC(C)(C)OP(=O)(OCc1cc(F)c(F)cc1-c1ccc2nc(N)nc(C(=O)N3Cc4ccccc4C3)c2c1)OC(C)(C)C`, the IC50 is 10 to 1000 nM.
Turning to `CC(C)CC(N)C(=O)OCc1cc(F)c(F)cc1-c1ccc2nc(N)nc(C(=O)N3Cc4ccccc4C3)c2c1` (centres unmarked), the IC50 lay within 10 to 1000 nM.
On to `CC(C)(C)C(=O)OCc1cc(F)c(F)cc1-c1ccc2nc(N)nc(C(=O)N3Cc4ccccc4C3)c2c1`, for which the IC50 lay within 10 to 1000 nM.
For the compound `CC(C)(C)OC(=O)NCCCCCC(=O)OCc1cc(F)c(F)cc1-c1ccc2nc(N)nc(C(=O)N3Cc4ccccc4C3)c2c1`, the IC50 lay in the range of 10 to 1000 nM.
As for `CC(C)(C)OC(=O)N1CCC[C@H]1C(=O)OCc1cc(F)c(F)cc1-c1ccc2nc(N)nc(C(=O)N3Cc4ccccc4C3)c2c1`, the IC50 lay within 10 to 1000 nM.
Turning to `NCCCC[C@H](N)C(=O)OCc1ccccc1-c1ccc2nc(N)nc(C(=O)N3Cc4ccccc4C3)c2c1`, the IC50 fell in the range of 10 to 1000 nM.
The same measure for `Nc1nc(C(=O)N2Cc3ccccc3C2)c2cc(-c3cc(F)c(F)cc3COC(=O)[C@@H]3CCCN3)ccc2n1`: 10 to 1000 nM.
